The results in this text go back to patent publication US20210170033A1, “NOVEL CONJUGATES OF A PHARMACEUTICAL AGENT AND A MOIETY CAPABLE OF BINDING TO A GLUCOSE SENSING PROTEIN” (SANOFI, priority 2017, published 2021).

Like-named read-outs stand apart in the source and are kept apart here.

One test concerns the target T1, hGLUT1 protein (Homo sapiens, UniProt P11166).
T1 construct: fused on or other part: 11-amino-acid HiBiT peptide tag (small part of nanoluciferase) inserted into the first extracellular loop of GLUT1
T1 sequence (P11166 1-492): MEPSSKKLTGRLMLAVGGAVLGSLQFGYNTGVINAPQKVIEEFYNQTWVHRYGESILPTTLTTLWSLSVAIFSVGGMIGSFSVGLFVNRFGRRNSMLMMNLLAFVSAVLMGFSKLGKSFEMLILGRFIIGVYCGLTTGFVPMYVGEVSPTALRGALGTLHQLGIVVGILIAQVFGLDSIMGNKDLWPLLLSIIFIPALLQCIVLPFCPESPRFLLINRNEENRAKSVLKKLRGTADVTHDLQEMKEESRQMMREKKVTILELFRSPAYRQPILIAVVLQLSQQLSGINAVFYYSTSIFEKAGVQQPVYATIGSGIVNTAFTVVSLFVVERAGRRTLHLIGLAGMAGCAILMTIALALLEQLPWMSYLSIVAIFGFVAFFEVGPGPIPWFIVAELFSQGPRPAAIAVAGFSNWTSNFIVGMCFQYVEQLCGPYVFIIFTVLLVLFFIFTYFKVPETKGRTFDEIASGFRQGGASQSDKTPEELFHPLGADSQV
Put plainly: NanoBRET-based GLUT1-binding assay in HEK cells. The conditions noted are these: for BRET interference signal using Glucose: check of HiBit-tagged GLUT1 HEK cell line, stereoselective signal. How it is done:
3. NanoBRET-Based GLUT1-Binding Assays in HEK Cells
To measure binding of compounds to the hGLUT1 protein, the newly-developed NanoBRET platform from Promega is used. In this technology binding is measured via Foerster Resonance Energy Transfer. Foerster Resonance Energy Transfer is based on a direct, radiation-free energy transfer from donor to acceptor and can only take place when donor and acceptor are within nm distance. As donor energy the bioluminescence light of nanoluciferase is used, therefore this application is referred to as BRET (Bioluminescence Resonance Energy Transfer). Nanoluciferase is a protein that emits light when the appropriate substrate is available.
Nanoluciferase is attached to GLUT1 via protein complementation using the HiBit protein tagging system (Promega). […] The HiBit peptide tag is used as a landing pad for the so called Large Bit protein that is commercially available from Promega and added to the medium. Large Bit has a high affinity for HiBit tag resulting in protein complementation to a fully-functional nanoluciferase, which is used as energy donor in the NanoBRET assay system.
To obtain a HEK cell line expressing HiBit-tagged GLUT1, cells were transfected with the appropriate construct placed behind the tetracycline-inducible promoter (Flipin T-Rex system from Thermo Fisher, K650001) and a cell line was generated.
As NanoBRET acceptor a GLUT1 inhibitor described by Siebeneicher et al. (Siebeneicher H., Bauser M., Buchmann B., et al. Identification of novel GLUT inhibitors. Bioorganic & Medicinal Chemistry Letters 2016; 26(7):1732-7; compound 53) was reduced to the aminobenzyl derivative and coupled to the fluorophore NanoBRET618 (Promega) and is referred to as “Bayer+NB618”.
For the assay 50 μl with 7500 cells (HiBit-tagged GLUT1 HEK cells) are plated into 384 poly-D-lysine-coated black μClear plates (Greiner) in DMEM (Gibco 61966) medium supplemented with 10% tetracycline-free FCS (PAN P30-3602) and 300 ng/ml doxycycline (Sigma 9891) to induce the induction of the HiBit-tagged GLUT1 protein.
Incubation of Compound and Acceptor Molecule
After getting adherent by overnight incubation at 37° C. and 10% CO2, the medium is replaced by 10 μl imaging medium (1% BSA (Sigma A9576), 5 mM Hepes (Gibco 15630), 0.35 mM Na-bicarbonate (Gibco 11360-039), 1 mM Na-Pyruvate (Gibco 11360) in PBS buffer (Gibco14040)). 5 μl Bayer+NB618 (in imaging medium, final concentration 75 nM) is added and the plates are incubated for 15 minutes statically at room temperature.
A serial dilution of the test compounds is prepared in imaging medium and added in 10 μl to the respective wells. As a positive control for displacement values from wells incubated with 200 mM D-Glucose (Sigma G8769) are used. Plates are incubated for 30 minutes at room temperature without shaking.
Generating Luminescence and Measuring Fluorescence
This detection solution is made in the buffer provided. After addition of the detection reagent, the samples are incubated for 30 minutes without shaking and subsequently the luminescence and fluorescence emissions are measured simultaneously on the PHERAstar FSX (BMG Labtech) using the appropriate dual filter setup. This filter setup is made up of a 450-80 nm band pass filter to measure the donor signal peaking at 460 nm and a long pass filter starting at 610 nm to measure the fluorescence emission of NanoBRET 618, which peaks at 621 nm and continues beyond 700 nm.
From the raw luminescence and fluorescence values, the NanoBRET ratios are calculated, being the ratio of the fluorescence signal divided by the luminescence signal. Mean values are obtained from at least duplicates.
For percentage inhibition results, the mean value of the not-compound-treated cells is set as 0%. The mean BRET value of the cells treated with 200 mM glucose is used for maximal inhibition. All other mean values were calculated to this relation. […]

The next test has as its system A2780 cells. The experiment in a line: Deoxy-glucose uptake assay in A2780 cells (14C 2-deoxy-D-glucose transport). To be noted: Homo sapiens, 20 min; inhibition of 14C 2-deoxy-D-glucose transport into A2780 cells; 20 min compound incubation; read-out: IC50. Format: cell-based. The procedure, abridged: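 Radiolabelled 2-deoxy-D-glucose transport over 20 min was scintillation-counted in A2780 cells, grown 48 h, after 20 min compound exposure in KRB. Untreated cells gave the 100% reference, with Cytochalasin B defining background. IC50 values were regressed from triplicate means across 7 or 14 concentrations.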

Test [1] concerns A2780 Human Carcinoma Cells. Put plainly: Glucose displacement assay (ATP measurement, CellTiter-Glo). Format: cell-based. The conditions noted are these: ATP measurement in A2780 cells, 0.5 μM rotenone. How it is done:
2. Glucose Displacement Assay (ATP Measurement)
30,000 A2780 Human Carcinoma Cells are seeded per well in a Greiner 96-well plate. Cells are expanded and cultured in RPMI 1640 medium+GlutaMAX® with 10% FCS and 11 mM glucose, at 37° C. with 5% CO2. After 44 h, culture media is changed and washed once with PBS to starvation media consisting of RPMI 1640 medium with 1% FCS without glucose for 2 hours. Cells are then washed with KRB buffer, followed by incubation for 20 min at 37° C. of the treatment mix consisting of 60 μL KRB buffer/well and 10 μL of compound or DMSO 10×. 10 μl of rotenone is added to the mix to a final concentration of 0.5 μM. Cell plates are left for 2 min at room temperature. 20 μL of different glucose concentrations are added to the mix—typically 0.1 to 10 mM range—.
Cells are incubated for another 15 min at 37° C., before measuring ATP with the CellTiter-Glo® Assay, under manufacturer's guidance, but without the equilibration step at room temperature for 30 min. In brief, 100 μl of Cell-Titer-Glo® Reagent is added to the wells containing already 100 μl of the previous reaction mix. Plates are mixed for 2 min at 800 rpm, followed by incubation at room temperature for 10 min to stabilize the luminescent signal. Luminescence is then recorded with the Tekan Ultra Evolution reader.
Background: ATP-based viability assays read luminescence as a measure of living cells.

Where [2] appears, read: displacement of Bayer+NB618 (75 nM) from HiBit-tagged GLUT1 HEK cells, mean of measurements done twice in duplo, read-out: IC50.
The mark [3] stands for this setting: 1 mM glucose, read-out: IC50 [μM] at 1 mM glucose.
The mark [4] stands for this setting: 10 mM glucose, read-out: IC50 [μM] at 10 mM glucose.

In the case of `O=C[C@H](O)[C@@H](O)[C@H](O)[C@H](O)CO` [D-Glucose, reference compound], at hGLUT1 protein, the IC50 (as a rule, the midpoint of a concentration-inhibition curve) was 5330 ± 560 µM and the “BRET interference signal using Glucose” value is recorded as “decreases BRET”.
Take `CO[C@H]1O[C@H](CO)[C@@H](O)[C@H](O)[C@H]1OC(=O)c1cc(Cl)c(OCc2cccc(CNC(=O)OC(C)(C)C)c2)c(Cl)c1C` [Example 202a]: the IC50 in the test with A2780 cells turned out to be 1.8 µM; on hGLUT1 protein (setting [2]), 4.41 µM.
On to `C#CCCCn1c(COc2c(Cl)cc(C(=O)O[C@H]3[C@@H](OC)O[C@H](CO)[C@@H](O)[C@@H]3O)c(C)c2Cl)nc2ccccc21` [Example 212], for which the concentration for half-maximal inhibition (IC50) with A2780 cells is 0.1 µM; in test [1] (setting [3]), less than 0.12 µM; in test [1] (setting [4]) it was 0.288 µM; on hGLUT1 protein (setting [2]) it was 0.24 µM.
Regarding `CO[C@H]1O[C@H](CO)[C@@H](O)[C@H](O)[C@H]1NC(=O)c1cc(Cl)c(OCc2nc3ccccc3n2CCCCCCNC(=O)OC(C)(C)C)c(Cl)c1C` [Example 305], the concentration for half-maximal inhibition (IC50) in the test with A2780 cells was 0.1 µM; on hGLUT1 protein (setting [2]), 2.83 µM.
Take `COC(=O)[C@H](CCC(=O)NCc1cccc(COc2c(Cl)cc(C(=O)O[C@H]3[C@@H](OC)O[C@H](CO)[C@@H](O)[C@@H]3O)c(C)c2Cl)c1)NC(=O)OC(C)(C)C` [Example 306]: the IC50 in the test with A2780 cells is 3 µM; in test [1] (setting [3]), 1.86 µM; in test [1] (setting [4]), 7.95 µM; at hGLUT1 protein (setting [2]), 0.19 µM.
In the same order, the values of `C#CCCCCCn1c(COc2c(Cl)cc(C(=O)O[C@H]3[C@@H](OC)O[C@H](CO)[C@@H](O)[C@@H]3O)c(C)c2Cl)nc2ccccc21` [Example 320] are 0.02 µM, 0.51 µM, 1.13 µM and 0.22 µM.
Consider `C#CCCCn1c(COc2cc(OC)c(C(=O)O[C@@H]3[C@@H](O)[C@@H](OC)O[C@H](CO)[C@H]3O)cc2Cl)nc2ccccc21` [Example 367], for which the concentration for half-maximal inhibition (IC50) was 3.9 µM with A2780 cells and greater than 30 µM at hGLUT1 protein (setting [2]).
In the same order, the values of `COC(=O)/C=C/c1ccc(COc2cc(OC)c(C(=O)N[C@H]3[C@@H](OC)O[C@H](CO)[C@@H](O)[C@@H]3O)cc2Cl)cc1` [Example 370] are 0.4 µM and 6.98 µM.
For `COc1cc(OCc2cccc(OCCCC(=O)OC(C)(C)C)c2)c(Cl)cc1C(=O)N[C@H]1[C@@H](OC)O[C@H](CO)[C@@H](O)[C@@H]1O` [Example 393], in that order: 0.9 µM and 17.2 µM.
For the compound `COC(=O)c1ccn2cc(COc3cc(OC)c(C(=O)N[C@H]4[C@@H](OC)O[C@H](CO)[C@@H](O)[C@@H]4O)cc3Cl)nc2c1` [Example 416], the results for the IC50 (in test [1] (setting [3]); in test [1] (setting [4]); at hGLUT1 protein (setting [2])) were 1.64 µM, 22.4 µM and 9.77 µM, respectively.
With `COC(=O)[C@H](CCCCNC(=O)CCCCCCC(=O)Nc1cccc(COc2cc(OC)c(C(=O)N[C@H]3[C@@H](OC)O[C@H](CO)[C@@H](O)[C@@H]3O)cc2Cl)c1)NC(=O)OC(C)(C)C` [Example 441], the results for the IC50 (in the test on A2780 cells; in test [1] (setting [3]); in test [1] (setting [4])) were 2.7 µM, 3 µM and 11.4 µM, respectively.
For `COC(=O)[C@H](CCCCNC(=O)CCCCCCCCC(=O)Nc1cccc(COc2cc(OC)c(C(=O)N[C@H]3[C@@H](OC)O[C@H](CO)[C@@H](O)[C@@H]3O)cc2Cl)c1)NC(=O)OC(C)(C)C` [Example 442], in that order: 1 µM, 1.6 µM and 5.2 µM.
On to `CO[C@H]1O[C@H](CO)[C@@H](O)[C@H](O)[C@H]1NC(=O)c1cc(Cl)c(OCc2cccc(NC(=O)OC(C)(C)C)c2)c(Cl)c1C` [Example 443], for which the IC50 with A2780 cells stood at 6 µM; in test [1] (setting [3]), 2 µM; in test [1] (setting [4]), 8.9 µM.
`COc1c(C(=O)N[C@H]2[C@@H](OC)O[C@H](CO)[C@@H](O)[C@@H]2O)cc(Cl)c(OCc2cccc(CNC(=O)OC(C)(C)C)c2)c1Cl` [Example 444]: the IC50 is 1.6 µM with A2780 cells, 4 µM in test [1] (setting [3]) and 8.4 µM in test [1] (setting [4]).
Consider `COc1cc(OCc2nc3ccccc3n2CCCCCCCCCCCC(=O)O)c(Cl)cc1C(=O)N[C@H]1[C@@H](OC)O[C@H](CO)[C@@H](O)[C@@H]1O` [Example 469], for which the 50% inhibitory concentration (IC50) in the test on A2780 cells came to 1.7 µM; in test [1] (setting [3]), 2.4 µM; in test [1] (setting [4]), 3.3 µM.
For `COC(=O)[C@H](CCCCNC(=O)CCCCCNC(=O)CCCCCCC(=O)Nc1cccc(COc2cc(OC)c(C(=O)N[C@H]3[C@@H](OC)O[C@H](CO)[C@@H](O)[C@@H]3O)cc2Cl)c1)NC(=O)OC(C)(C)C` [Example 471], the figures for the half-inhibitory concentration (IC50) (with A2780 cells; in test [1] (setting [3]); in test [1] (setting [4])) were 0.8 µM, 3.4 µM and 8.6 µM, respectively.
For `COC(=O)[C@@H](CCCCNC(=O)CCCCCNC(=O)CCCCCCCCC(=O)Nc1cccc(COc2cc(OC)c(C(=O)N[C@H]3[C@@H](OC)O[C@H](CO)[C@@H](O)[C@@H]3O)cc2Cl)c1)NC(=O)OC(C)(C)C` [Example 472], in that order: 1.6 µM, 5.9 µM and 15.6 µM.
For the compound `O=C[C@@H](O)[C@H](O)[C@@H](O)[C@@H](O)CO` [L-Glucose, reference compound], the “BRET interference signal using Glucose” value on hGLUT1 protein was “no effect on BRET”.
